In article PMC5548886 (Cancer Medicine, 2017):

Experiments:
[1] = tested on: locally advanced or metastatic melanoma; test: Antitumor response by RECIST 1.0; type: in vivo, human
Experimental: Medical history and demographics were collected at screening. The safety of study medication was evaluated on the basis of rate, type, severity graded in accordance with NCI CTCAE version 3.0. Safety assessments consisted of collecting all AEs, serious adverse events (SAEs) with their severity and relationship with study drug, and pregnancies. They included the regular monitoring of hematology, blood chemistry and urine performed at the study center/central laboratory and regular assessments of vital signs, physical condition, body weight, performance status, and cardiac data (i.e. electrocardiogram (ECG)/echocardiogram (ECHO)). Abnormalities in clinical laboratory tests that were considered clinically significant by the Investigator were recorded on the AE CRF. Dose‐limiting toxicities (DLTs) were defined for various organ systems and other clinically relevant adverse effects (Table S1). The DLT window was the first cycle while AEs were captured for the entire course of treatment. Evaluation of tumor response was conducted at Baseline, and at the end of every 8 weeks of treatment. Response was assessed using the Response Evaluation Criteria in Solid Tumors (RECIST) 1.0. […] All patients discontinuing from the study for progressive disease were to have their disease progression documented by radiologic evaluation.

BRAF V600E = details: read-out: EC50 for BRAF V600E; preclinical data; cited from earlier work
nuclear p-ERK = test: IHC of tumor biopsies, H-score change on-treatment vs pretreatment; type: in vivo, human
Experimental: Pharmacodynamic markers were examined using peripheral blood samples, tumor and nevi biopsies (when available) and tumor imaging. BRAF mutation status was determined by Sanger sequencing. Pharmacodynamic markers analyzed, in available tumor/nevus samples obtained before treatment or archival tissue and during treatment on cycle 1, day 8 or day 15, including cytoplasmic p‐MEK, p‐ERK, BIM, c‐KIT, p‐AKT473, pS6 and PTEN, and nuclear p‐ERK, Ki‐67, PARP, cyclin D1, MITF, p27, and p53. Biomarker expression was determined by calculating the percentage of change in the H‐score (14) between on‐treatment and fresh/archival pretreatment specimens. Blood levels of VEGFR‐2 and were assessed before and at multiple time points while on treatment using enzyme‐linked immunosorbent assay (ELISA). […] Changes in standard uptake value (SUV) were determined by a blinded, independent central imaging review panel. Complete metabolic response (CMR) was complete resolution of tumor FDG‐PET uptake so SUV is the same as background. Partial metabolic response (PMR) decrease in sum of the tumor SUV of ≥25% from the baseline scan. Progressive metabolic disease (PMD) was defined as an increase in tumor SUV of ≥25% from the baseline scan, or the appearance of new FDG‐PET uptake in metastatic lesions. Stable metabolic disease (SMD) was defined as a change in tumor SUV between the PMR and PMD criteria.

wild-type BRAF protein = details: read-out: EC50 for the wild-type BRAF protein; preclinical; cited from earlier work
[2] = 33 patients with BRAF-WT melanomas
[3] = BRAF mutation, All patients, 33 evaluable
[4] = BRAF mutation, DL 5, 8 evaluable
[5] = BRAF mutation, DL 6, 10 evaluable
[6] = BRAF mutation, DLs 1 to 4, 6 evaluable
[7] = BRAF mutation, DLs 7 and 7.1, 9 evaluable
[8] = BRAF unspecified/unknown, All patients, 5 evaluable
[9] = BRAF unspecified/unknown, DL 5, 0 evaluable
[10] = BRAF unspecified/unknown, DL 6, 2 evaluable
[11] = BRAF unspecified/unknown, DLs 1 to 4, 1 evaluable
[12] = BRAF unspecified/unknown, DLs 7 and 7.1, 2 evaluable
[13] = BRAF wild-type, All patients, 28 evaluable
[14] = BRAF wild-type, DL 5, 5 evaluable
[15] = BRAF wild-type, DL 6, 8 evaluable
[16] = BRAF wild-type, DLs 1 to 4, 8 evaluable
[17] = BRAF wild-type, DLs 7 and 7.1, 7 evaluable
[18] = Total, All patients, 66 evaluable
[19] = Total, DLs 1 to 4, 15 evaluable
[20] = Total, DLs 7 and 7.1, 18 evaluable

Cn1c(Nc2ccc(C(F)(F)F)cc2)nc2cc(Oc3ccnc(-c4ncc(C(F)(F)F)[nH]4)c3)ccc21 [RAF265]
number of CR [1, 2]: one
number of PR [1, 2]: two
number of PR ([1]; 39 patients with BRAF V600E mutation): Four
number of complete responses (CR) ([1]; 66 evaluable patients): one
number of partial responses (PR) ([1]; 66 evaluable patients): seven
objective response rate (ORR), RECIST ([1]; 66 evaluable patients, all dose levels): 12.1%
Best response CR or PR ([1]; All patients, 66 evaluable): 8 (12.1) n (%)
Best response CR, PR or SD ([1]; All patients, 66 evaluable): 35 (53) n (%)
Complete response (CR), best overall response [1, 3]: 0 n (%)
Partial response (PR), best overall response [1, 3]: 4 (12) n (%)
Stable disease (SD), best overall response [1, 3]: 15 (46) n (%)
Complete response (CR), best overall response [1, 4]: 0 n (%)
Partial response (PR), best overall response [1, 4]: 1 (12.5) n (%)
Progressive disease (PD), best overall response [1, 4]: 4 (50) n (%)
Stable disease (SD), best overall response [1, 4]: 3 (37.5) n (%)
Complete response (CR), best overall response [1, 5]: 0 n (%)
Partial response (PR), best overall response [1, 5]: 1 (10) n (%)
Progressive disease (PD), best overall response [1, 5]: 2 (20) n (%)
Stable disease (SD), best overall response [1, 5]: 7 (70) n (%)
Complete response (CR), best overall response [1, 6]: 0 n (%)
Partial response (PR), best overall response [1, 6]: 2 (33.3) n (%)
Progressive disease (PD), best overall response [1, 6]: 4 (66.7) n (%)
Stable disease (SD), best overall response [1, 6]: 0 n (%)
Complete response (CR), best overall response [1, 7]: 0 n (%)
Partial response (PR), best overall response [1, 7]: 0 n (%)
Progressive disease (PD), best overall response [1, 7]: 4 (44) n (%)
Stable disease (SD), best overall response [1, 7]: 5 (56) n (%)
Complete response (CR), best overall response [1, 8]: 0 n (%)
Partial response (PR), best overall response [1, 8]: 1 (20) n (%)
Progressive disease (PD), best overall response [1, 8]: 3 (60) n (%)
Stable disease (SD), best overall response [1, 8]: 1 (20) n (%)
Complete response (CR), best overall response [1, 9]: 0 n (%)
Partial response (PR), best overall response [1, 9]: 0 n (%)
Progressive disease (PD), best overall response [1, 9]: 0 n (%)
Stable disease (SD), best overall response [1, 9]: 0 n (%)
Complete response (CR), best overall response [1, 10]: 0 n (%)
Partial response (PR), best overall response [1, 10]: 0 n (%)
Progressive disease (PD), best overall response [1, 10]: 2 (100) n (%)
Stable disease (SD), best overall response [1, 10]: 0 n (%)
Complete response (CR), best overall response [1, 11]: 0 n (%)
Partial response (PR), best overall response [1, 11]: 0 n (%)
Progressive disease (PD), best overall response [1, 11]: 0 n (%)
Stable disease (SD), best overall response [1, 11]: 1 (100) n (%)
Complete response (CR), best overall response [1, 12]: 0 n (%)
Partial response (PR), best overall response [1, 12]: 1 (50) n (%)
Progressive disease (PD), best overall response [1, 12]: 1 (50) n (%)
Stable disease (SD), best overall response [1, 12]: 0 n (%)
Complete response (CR), best overall response [1, 13]: 1 (3.6) n (%)
Stable disease (SD), best overall response [1, 13]: 11 (39.3) n (%)
Complete response (CR), best overall response [1, 14]: 0 n (%)
Partial response (PR), best overall response [1, 14]: 0 n (%)
Progressive disease (PD), best overall response [1, 14]: 2 (40) n (%)
Stable disease (SD), best overall response [1, 14]: 3 (60) n (%)
Complete response (CR), best overall response [1, 15]: 0 n (%)
Partial response (PR), best overall response [1, 15]: 1 (12.5) n (%)
Progressive disease (PD), best overall response [1, 15]: 5 (62.5) n (%)
Stable disease (SD), best overall response [1, 15]: 2 (25) n (%)
Complete response (CR), best overall response [1, 16]: 0 n (%)
Partial response (PR), best overall response [1, 16]: 1 (12.5) n (%)
Progressive disease (PD), best overall response [1, 16]: 6 (75) n (%)
Stable disease (SD), best overall response [1, 16]: 1 (12.5) n (%)
Complete response (CR), best overall response [1, 17]: 1 (14.3) n (%)
Partial response (PR), best overall response [1, 17]: 0 n (%)
Progressive disease (PD), best overall response [1, 17]: 1 (14.3) n (%)
Stable disease (SD), best overall response [1, 17]: 5 (71.4) n (%)
Best response CR or PR ([1]; DL 5, 13 evaluable): 1 (7.7) n (%)
Best response CR, PR or SD ([1]; DL 5, 13 evaluable): 7 (53.8) n (%)
Best response CR or PR ([1]; DL 6, 20 evaluable): 2 (10) n (%)
Best response CR, PR or SD ([1]; DL 6, 20 evaluable): 11 (55) n (%)
Best response CR or PR ([1]; DLs 1 to 4, 15 evaluable): 3 (20) n (%)
Best response CR, PR or SD ([1]; DLs 1 to 4, 15 evaluable): 5 (33.3) n (%)
Best response CR or PR ([1]; DLs 7 and 7.1, 18 evaluable): 2 (11.1) n (%)
Best response CR, PR or SD ([1]; DLs 7 and 7.1, 18 evaluable): 12 (66.7) n (%)
Complete response (CR), best overall response [1, 18]: 1 (1.5) n (%)
Partial response (PR), best overall response [1, 18]: 7 (10.6) n (%)
Progressive disease (PD), best overall response [1, 18]: 31 (47) n (%)
Stable disease (SD), best overall response [1, 18]: 27 (40.9) n (%)
Complete response (CR), best overall response ([1]; Total, DL 5, 13 evaluable): 0 n (%)
Partial response (PR), best overall response ([1]; Total, DL 5, 13 evaluable): 1 (7.7) n (%)
Progressive disease (PD), best overall response ([1]; Total, DL 5, 13 evaluable): 6 (46.1) n (%)
Stable disease (SD), best overall response ([1]; Total, DL 5, 13 evaluable): 6 (46.1) n (%)
Complete response (CR), best overall response ([1]; Total, DL 6, 20 evaluable): 0 n (%)
Partial response (PR), best overall response ([1]; Total, DL 6, 20 evaluable): 2 (10) n (%)
Progressive disease (PD), best overall response ([1]; Total, DL 6, 20 evaluable): 9 (45) n (%)
Stable disease (SD), best overall response ([1]; Total, DL 6, 20 evaluable): 9 (45) n (%)
Complete response (CR), best overall response [1, 19]: 0 n (%)
Partial response (PR), best overall response [1, 19]: 3 (20) n (%)
Progressive disease (PD), best overall response [1, 19]: 10 (66.7) n (%)
Stable disease (SD), best overall response [1, 19]: 2 (13.3) n (%)
Complete response (CR), best overall response [1, 20]: 1 (5.6) n (%)
Partial response (PR), best overall response [1, 20]: 1 (5.6) n (%)
Progressive disease (PD), best overall response [1, 20]: 6 (33.3) n (%)
Stable disease (SD), best overall response [1, 20]: 10 (55.6) n (%)
number of PR ([1]; unknown BRAF mutation status): one
nuclear pERK % change vs pretreatment, Mean (SD) (nuclear p-ERK; All patients, n 21): -2 (51.6) %
nuclear pERK % change vs pretreatment, Median (nuclear p-ERK; All patients, n 21): 0%
nuclear pERK % change vs pretreatment, Mean (SD) (nuclear p-ERK; DL 5, n 2): +18.2 (35.8) %
nuclear pERK % change vs pretreatment, Median (nuclear p-ERK; DL 5, n 2): +18.2%
nuclear pERK % change vs pretreatment, Mean (SD) (nuclear p-ERK; DL 6, n 5): -41.8 (48) %
nuclear pERK % change vs pretreatment, Median (nuclear p-ERK; DL 6, n 5): -22.2%
nuclear pERK % change vs pretreatment, Mean (SD) (nuclear p-ERK; DLs 1 - 4, n 10): +21.1 (52.13) %
nuclear pERK % change vs pretreatment, Median (nuclear p-ERK; DLs 1 - 4, n 10): 0%
nuclear pERK % change vs pretreatment, Mean (SD) (nuclear p-ERK; DLs 7 and 7.1, n 4): -20.3 (31.3) %
nuclear pERK % change vs pretreatment, Median (nuclear p-ERK; DLs 7 and 7.1, n 4): -7.6%
